tested on: not listed separately; experiment: in vivo; set-up: species or system Fischer-rats; conditions: rat, po
Procedure: That is, LD50(p.o.) of the compound was higher than 1,000 mg/kg.

Structure (SMILES) | LD50 at 24 h
CC(C)=CCOc1cccn2c(CC#N)c(C)nc12 [Example 16, 3-Cyanomethyl-2-methyl-8-[(3-methyl-2-butenyl)-oxy]imidazo[1,2-a]pyridine] | > 1000 mg/kg

tested on: Gastric Acid Secretion; experiment: Histamine-stimulated gastric acid secretion in Heidenhain pouch dogs; format: in vivo, beagle dogs; conditions: histamine s.c. 1 hour after drug administration
Procedure: Six male beagle dogs (13 to 17kg) with well-established Heidenhain pouches were used for the construction of gastric acid secretion response curves. Food was withheld but water allowed for 18 hours before each experiment. Histamine (60 Mg/kg/hr) was administered subcutaneously 1 hour after drug administration. The pouch secretion was allowed to drain into a collection vessel which was changed every 15 minutes. Gastric juice volume was recorded, and acid concentration was determined by titration with 0.05N NaOH up to pH 7.0 using an automatic titrator (Hiranuma Sangyo Co., COMTITE-7).

Structure (SMILES) | Gastric Acid Secretion Inhibitory Rate (%) Pouch Dog 3 mg/kg p.o.
Cc1nc2c(OCC3CCCCC3)cccn2c1CC#N [Example 11, 3-cyanomethyl-8-cyclohexylmethoxy-2-methylimidazo-[1,2-a]-pyridine] | 67%
CCCCCOc1cccn2c(CC#N)c(C)nc12 [Example 12, 3-Cyanomethyl-2-methyl-8-pentyloxyimidazo-[1,2-a]pyridine] | 61%
CC(C)=CCOc1cccn2c(CC#N)c(C)nc12 [Example 16, 3-Cyanomethyl-2-methyl-8-[(3-methyl-2-butenyl)-oxy]imidazo[1,2-a]pyridine] | 82%
Cc1nc2c(OCc3ccccc3)cccn2c1CC#N [Known compound A, reference compound] | 36%
C=CCOc1cccn2c(CC#N)c(C)nc12 [Known compound B, reference compound] | 21%
